Values of other authors, collected in patent US20090036541A1, “Applicator and chemical combination for better topical anesthesia” (priority 2007, published 2009).

Conditions: compared with lidocaine

SMILES: CCCCNc1ccc(C(=O)OCCN(C)C)cc1 [tetracaine]
- potency relative to lidocaine: ten-fold
